Test results: ChEMBL document CHEMBL1201862, “PubChem BioAssay data set” (2004)
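96-well plates; 48 h exposure; 5 concentrations. Endpoints by linear interpolation between flanking doses. Not reached: highest tested concentration assigned. GI50 is the concentration that inhibits growth by half.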 Activity calls are given as the source filed them. Rule as the data show it: active = GI50 up to about 1.1 µM and inactive = higher.

What was measured:
Assay in all cases: NCI tumour cell line growth inhibition, 48 h
[1] = test system: T47D
[2] = test system: CAKI-1
[3] = test system: HCT-116
[4] = test system: HOP-92
[5] = test system: IGROV-1
[6] = test system: M14
[7] = test system: 786-0
[8] = test system: Hs-578T
[9] = test system: RPMI-8226
[10] = test system: HCC 2998
[11] = test system: OVCAR-4
[12] = test system: UO-31
[13] = test system: SK-MEL-5
[14] = test system: TK-10
[15] = test system: RXF 393
[16] = test system: SNB-75
[17] = test system: A549
[18] = test system: NCI-H226
[19] = test system: U-251
[20] = test system: NCI/ADR-RES

Compound | GI50 [1] | GI50 [2] | GI50 [3] | GI50 [4] | GI50 [5] | GI50 [6] | GI50 [7] | GI50 [8] | GI50 [9] | GI50 [10] | GI50 [11] | GI50 [12] | GI50 [13] | GI50 [14] | GI50 [15] | GI50 [16] | GI50 [17] | GI50 [18] | GI50 [19] | GI50 [20]
COc1ccc(CN2C(=O)CCC/C=C\[C@H]2CI)cc1 | 0.286 µM (active) | 10.3 µM (inactive) | 11.7 µM (inactive) | 12.8 µM (inactive) | 15.6 µM (inactive) | 10.7 µM (inactive) | 14 µM (inactive) | 14.2 µM (inactive) | 6.97 µM (inactive) | 11.6 µM (inactive) | 10.9 µM (inactive) | 11.6 µM (inactive) | 12.6 µM (inactive) | 12.5 µM (inactive) | 3.32 µM (inactive) | 2.41 µM (inactive) | 10 µM (inactive) | 12.9 µM (inactive) | 13.6 µM (inactive) | 13.7 µM (inactive)
CCOC(=O)Cn1nnc2ccc(Nc3nc4ccccc4nc3C(=O)OCC)cc21 | > 100 µM (inactive) | > 100 µM (inactive) | > 100 µM (inactive) | 56.2 µM (inactive) | > 100 µM (inactive) | > 100 µM (inactive) | 89.3 µM (inactive) | 33.5 µM (inactive) | > 100 µM (inactive) | 87.3 µM (inactive) | > 100 µM (inactive) | 30.1 µM (inactive) | > 100 µM (inactive) | 45.1 µM (inactive) | 37.9 µM (inactive) | 18.5 µM (inactive) | > 100 µM (inactive) | > 100 µM (inactive) | 74 µM (inactive) | > 100 µM (inactive)
O=C(O)CSc1ccccc1C(=O)O | > 100 µM (inactive) | > 100 µM (inactive) | > 100 µM (inactive) | > 100 µM (inactive) | > 100 µM (inactive) | > 100 µM (inactive) | > 100 µM (inactive) | > 100 µM (inactive) | > 100 µM (inactive) | 29.6 µM (inactive) | > 100 µM (inactive) | > 100 µM (inactive) | > 100 µM (inactive) | 22.8 µM (inactive) | > 100 µM (inactive) | > 100 µM (inactive) | > 100 µM (inactive) | 99.1 µM (inactive) | > 100 µM (inactive) | > 100 µM (inactive)
O=[N+]([O-])/C(Cl)=C(/C(Cl)=C(Cl)Cl)N1CCCCC1 | 11.8 µM (inactive) | 11.8 µM (inactive) | 6.18 µM (inactive) | 16.1 µM (inactive) | 10.6 µM (inactive) | 11.2 µM (inactive) | 11.3 µM (inactive) | 5.06 µM (inactive) | 4.43 µM (inactive) | 15.9 µM (inactive) | 13.8 µM (inactive) | 8.15 µM (inactive) | 6.44 µM (inactive) | 21.4 µM (inactive) | 7.26 µM (inactive) | 18.8 µM (inactive) | 12.6 µM (inactive) | 13.9 µM (inactive) | 11.8 µM (inactive) | 4.06 µM (inactive)
NCC(=O)Nc1ccc(Cl)cc1C(=O)c1ccc[nH]1 | 54.1 µM (inactive) | 78 µM (inactive) | 7.64 µM (inactive) | 15.4 µM (inactive) | > 48.4 µM (inactive) | 99.3 µM (inactive) | > 83.4 µM (inactive) | > 67.5 µM (inactive) | 5.57 µM (inactive) | 31.8 µM (inactive) | 21.7 µM (inactive) | 21.7 µM (inactive) | 49 µM (inactive) | > 94.6 µM (inactive) | > 82.2 µM (inactive) | 38.5 µM (inactive) | 63.1 µM (inactive) | 46.3 µM (inactive) | 15.2 µM (inactive) | 49 µM (inactive)
